Earlier results, collected in US20230414496A1, “BIODEGRADABLE POLYMER-NANOPARTICLE BASED IMPLANTS FOR OCULAR DRUG DELIVERY” (priority 2020, published 2023).
Like-named read-outs stand apart in the source and are kept apart here.

What was measured:
[1] = 400 μg MTX intravitreal injection, pre-clinical study; read-out: peak MTX concentration (Cmax-MTX)
[2] = 400 μg MTX intravitreal injection

CN(Cc1cnc2nc(N)nc(N)c2n1)c1ccc(C(=O)N[C@@H](CCC(=O)O)C(=O)O)cc1 [methotrexate]
Cmax [1]: 400 µM | total duration of MTX release ([2]; clinical study and pre-clinical study): 2 to 6 days | Cmax ([2]; clinical study, read-out: peak MTX concentration (Cmax-MTX)): 360 µM
